Test results as given in patent publication US7919456B2, “Connective tissue derived polypeptides” (Proteobioactives Pty Ltd., priority 2003, dated 2011).

Tested on: rat collagen induced arthritis (CIA) model
Assay: Rat collagen induced arthritis (CIA), prophylactic/therapeutic protocol
Assay type: in vivo, Female Wistar rats
Conditions: 6.3 mg/kg SC
[1] = 15 days treatment, n = 4, scored 0-4+

O=C(O)CC([S-])C(=O)O.[Au+] (stereo not drawn) [ATM, aurothiomalate]
Signs of arthritis Day 15 Weight change: +47 g
Signs of arthritis Day 18 Weight change: +04 g
Mean arthritis scores Day 13 [1]: 0.8
Mean arthritis scores Day 15 [1]: 2.1
Mean arthritis scores Day 18 [1]: 2.1
Signs of arthritis Day 15 F/paw swell (fore paw): 2.5 mm
Signs of arthritis Day 18 F/paw swell (fore paw): 3.2 mm
Signs of arthritis Day 15 R/paw swell (rear paw): 0.7 mm
Signs of arthritis Day 18 R/paw swell (rear paw): 0.8 mm
